Test results published in ChEMBL document CHEMBL1129952, “Structure-based design of substituted diphenyl sulfones and sulfoxides as lipophilic inhibitors of thymidylate synthase” (J Med Chem, 1997).
Several values for one entry are separate records, joined by “and”; a condition that tells them apart may be missing. Equal entries are not always repeated.

What follows are compounds tested on GC3/MTK- (assay: Inhibitory activity against GC3/M TK- human adreno carcinoma cell lines.). Details: not given.

Row | SMILES | IC50 [nM]
1 | C#CCN(Cc1ccc2nc(C)nc(O)c2c1)c1ccc(S(=O)(=O)c2ccccc2)cc1 | 1030
2 | C#CCN(Cc1ccc2nc(C)nc(O)c2c1)c1ccc([S+]([O-])c2ccccc2C)c(C(F)(F)F)c1 (stereo not drawn) | 9100
3 | C#CCN(Cc1ccc2nc(C)nc(O)c2c1)c1ccc(S(=O)(=O)c2ccccc2)c(Cl)c1 | 3000
4 | C#CCN(Cc1ccc2nc(C)nc(O)c2c1)c1ccc(S(=O)(=O)c2ccccc2)c(F)c1 | 2800
5 | C#CCN(Cc1ccc2nc(C)nc(O)c2c1)c1ccc([S+]([O-])c2ccccc2)c(C(F)(F)F)c1 (stereo not drawn) | 3300
6 | C#CCN(Cc1ccc2nc(C)nc(O)c2c1)c1ccc(S(=O)(=O)c2ccccc2C)c(C(F)(F)F)c1 | > 5000
7 | C#CCN(Cc1ccc2nc(C)nc(O)c2c1)c1ccc(S(=O)(=O)c2ccccc2Cl)cc1 | 1200
8 | C#CCN(Cc1ccc2nc(C)nc(O)c2c1)c1ccc([S+]([O-])c2ccccc2)c(Cl)c1 (stereo not drawn) | 3800
9 | C#CCN(Cc1ccc2nc(C)nc(O)c2c1)c1ccc([S+]([O-])c2ccccc2C)cc1 (stereo not drawn) | 4000
10 | C#CCN(Cc1ccc2nc(C)nc(O)c2c1)c1ccc([S+]([O-])c2ccccc2Cl)cc1 (stereo not drawn) | 4300
11 | C#CCN(Cc1ccc2nc(C)nc(O)c2c1)c1ccc([S+]([O-])c2ccccc2)c(F)c1 (stereo not drawn) | 4200
12 | C#CCN(Cc1ccc2nc(C)nc(O)c2c1)c1ccc(S(=O)(=O)c2ccccc2C)cc1 | 3400

Each compound was assayed on L1210 (assay: Inhibitory activity against murine L1210 leukemic cell lines.). Details: Mus musculus.

Row | SMILES | IC50 [nM]
13 | C#CCN(Cc1ccc2nc(C)nc(O)c2c1)c1ccc([S+]([O-])c2ccccc2C)c(C(F)(F)F)c1 (stereo not drawn) | 1000
14 | C#CCN(Cc1ccc2nc(C)nc(O)c2c1)c1ccc(S(=O)(=O)c2ccccc2)c(Cl)c1 | 1600
15 | C#CCN(Cc1ccc2nc(C)nc(O)c2c1)c1ccc(S(=O)(=O)c2ccccc2)c(F)c1 | 1200
16 | C#CCN(Cc1ccc2nc(C)nc(O)c2c1)c1ccc([S+]([O-])c2ccccc2)c(C(F)(F)F)c1 (stereo not drawn) | 1100
17 | C#CCN(Cc1ccc2nc(C)nc(O)c2c1)c1ccc(S(=O)(=O)c2ccccc2C)c(C(F)(F)F)c1 | 1000
18 | C#CCN(Cc1ccc2nc(C)nc(O)c2c1)c1ccc(S(=O)(=O)c2ccccc2Cl)cc1 | 300
19 | C#CCN(Cc1ccc2nc(C)nc(O)c2c1)c1ccc([S+]([O-])c2ccccc2)c(Cl)c1 (stereo not drawn) | 1000
20 | C#CCN(Cc1ccc2nc(C)nc(O)c2c1)c1ccc([S+]([O-])c2ccccc2C)cc1 (stereo not drawn) | 1700
21 | C#CCN(Cc1ccc2nc(C)nc(O)c2c1)c1ccc([S+]([O-])c2ccccc2Cl)cc1 (stereo not drawn) | 2100
22 | C#CCN(Cc1ccc2nc(C)nc(O)c2c1)c1ccc([S+]([O-])c2ccccc2)c(F)c1 (stereo not drawn) | 2100
23 | C#CCN(Cc1ccc2nc(C)nc(O)c2c1)c1ccc(S(=O)(=O)c2ccccc2C)cc1 | 600

What follows are compounds tested on CCRF-CEM (assay: Inhibitory activity against human CCRF-CEM leukemic cell lines.). Details: not given.

Row | SMILES | IC50 [nM]
24 | C#CCN(Cc1ccc2nc(C)nc(O)c2c1)c1ccc([S+]([O-])c2ccccc2C)c(C(F)(F)F)c1 (stereo not drawn) | 3000
25 | C#CCN(Cc1ccc2nc(C)nc(O)c2c1)c1ccc(S(=O)(=O)c2ccccc2)c(Cl)c1 | 1500
26 | C#CCN(Cc1ccc2nc(C)nc(O)c2c1)c1ccc(S(=O)(=O)c2ccccc2)c(F)c1 | 2000
27 | C#CCN(Cc1ccc2nc(C)nc(O)c2c1)c1ccc([S+]([O-])c2ccccc2)c(C(F)(F)F)c1 (stereo not drawn) | 3000
28 | C#CCN(Cc1ccc2nc(C)nc(O)c2c1)c1ccc(S(=O)(=O)c2ccccc2C)c(C(F)(F)F)c1 | 2000
29 | C#CCN(Cc1ccc2nc(C)nc(O)c2c1)c1ccc(S(=O)(=O)c2ccccc2Cl)cc1 | 600
30 | C#CCN(Cc1ccc2nc(C)nc(O)c2c1)c1ccc([S+]([O-])c2ccccc2)c(Cl)c1 (stereo not drawn) | 2300
31 | C#CCN(Cc1ccc2nc(C)nc(O)c2c1)c1ccc([S+]([O-])c2ccccc2C)cc1 (stereo not drawn) | 3500
32 | C#CCN(Cc1ccc2nc(C)nc(O)c2c1)c1ccc([S+]([O-])c2ccccc2Cl)cc1 (stereo not drawn) | 5800
33 | C#CCN(Cc1ccc2nc(C)nc(O)c2c1)c1ccc([S+]([O-])c2ccccc2)c(F)c1 (stereo not drawn) | 1400
34 | C#CCN(Cc1ccc2nc(C)nc(O)c2c1)c1ccc(S(=O)(=O)c2ccccc2C)cc1 | 2700

What follows are compounds tested against T1, Thymidylate synthase (Homo sapiens, UniProt P04818). Details: not given.
T1 sequence (P04818 whole entry): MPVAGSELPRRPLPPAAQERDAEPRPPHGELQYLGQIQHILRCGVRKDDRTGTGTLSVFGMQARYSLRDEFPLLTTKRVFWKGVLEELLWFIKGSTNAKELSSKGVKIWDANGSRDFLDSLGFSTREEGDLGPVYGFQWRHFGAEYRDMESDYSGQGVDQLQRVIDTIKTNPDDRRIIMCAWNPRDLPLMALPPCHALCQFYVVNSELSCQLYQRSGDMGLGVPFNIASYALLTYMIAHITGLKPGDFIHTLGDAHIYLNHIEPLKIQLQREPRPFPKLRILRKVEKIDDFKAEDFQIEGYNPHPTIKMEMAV

Row | SMILES | Ki
35 | C#CCN(Cc1ccc2nc(C)nc(O)c2c1)c1ccc([S+]([O-])c2ccccc2C)c(C(F)(F)F)c1 (stereo not drawn) | 260 nM and 390 nM
36 | C#CCN(Cc1ccc2nc(C)nc(O)c2c1)c1ccc(S(=O)(=O)c2ccccc2)c(Cl)c1 | 24 nM and 55 nM
37 | C#CCN(Cc1ccc2nc(C)nc(O)c2c1)c1ccc(S(=O)(=O)c2ccccc2)c(F)c1 | 20 nM and 46 nM
38 | C#CCN(Cc1ccc2nc(C)nc(O)c2c1)c1ccc([S+]([O-])c2ccccc2)c(C(F)(F)F)c1 (stereo not drawn) | 70 nM and 150 nM
39 | C#CCN(Cc1ccc2nc(C)nc(O)c2c1)c1ccc(S(=O)(=O)c2ccccc2C)c(C(F)(F)F)c1 | 150 nM and 380 nM
40 | C#CCN(Cc1ccc2nc(C)nc(O)c2c1)c1ccc(S(=O)(=O)c2ccccc2Cl)cc1 | 21 nM and 25 nM
41 | C#CCN(Cc1ccc2nc(C)nc(O)c2c1)c1ccc([S+]([O-])c2ccccc2)c(Cl)c1 (stereo not drawn) | 27 nM and 37 nM
42 | C#CCN(Cc1ccc2nc(C)[nH]c(=O)c2c1)c1ccc([S+]([O-])c2ccccc2)cc1 (stereo not drawn) | 61 nM and 110 nM
43 | C#CCN(Cc1ccc2nc(C)nc(O)c2c1)c1ccc([S+]([O-])c2ccccc2C)cc1 (stereo not drawn) | 45 nM and 77 nM
44 | C#CCN(Cc1ccc2nc(C)nc(O)c2c1)c1ccc([S+]([O-])c2ccccc2Cl)cc1 (stereo not drawn) | 46 nM and 73 nM
45 | C#CCN(Cc1ccc2nc(C)nc(O)c2c1)c1ccc([S+]([O-])c2ccccc2)c(F)c1 (stereo not drawn) | 50 nM and 120 nM
46 | C#CCN(Cc1ccc2nc(C)nc(O)c2c1)c1ccc(S(=O)(=O)c2ccccc2C)cc1 | 26 nM and 58 nM

Biological target: T1, Thymidylate synthase
Details: not given
Remark: another data set of the same source

Row | SMILES | Ki
47 | C#CCN(Cc1ccc2nc(C)nc(O)c2c1)c1ccc([S+]([O-])c2ccccc2C)c(C(F)(F)F)c1 (stereo not drawn) | 290 nM and 920 nM
48 | C#CCN(Cc1ccc2nc(C)nc(O)c2c1)c1ccc(S(=O)(=O)c2ccccc2)c(Cl)c1 | 33 nM and 43 nM
49 | C#CCN(Cc1ccc2nc(C)nc(O)c2c1)c1ccc(S(=O)(=O)c2ccccc2)c(F)c1 | 43 nM and 74 nM
50 | C#CCN(Cc1ccc2nc(C)nc(O)c2c1)c1ccc([S+]([O-])c2ccccc2)c(C(F)(F)F)c1 (stereo not drawn) | 110 nM and 160 nM
51 | C#CCN(Cc1ccc2nc(C)nc(O)c2c1)c1ccc(S(=O)(=O)c2ccccc2C)c(C(F)(F)F)c1 | 160 nM and 390 nM
52 | C#CCN(Cc1ccc2nc(C)nc(O)c2c1)c1ccc(S(=O)(=O)c2ccccc2Cl)cc1 | 33 nM and 69 nM
53 | C#CCN(Cc1ccc2nc(C)nc(O)c2c1)c1ccc([S+]([O-])c2ccccc2)c(Cl)c1 (stereo not drawn) | 54 nM and 130 nM
54 | C#CCN(Cc1ccc2nc(C)[nH]c(=O)c2c1)c1ccc([S+]([O-])c2ccccc2)cc1 (stereo not drawn) | 160 nM and 550 nM
55 | C#CCN(Cc1ccc2nc(C)nc(O)c2c1)c1ccc([S+]([O-])c2ccccc2C)cc1 (stereo not drawn) | 250 nM and 780 nM
56 | C#CCN(Cc1ccc2nc(C)nc(O)c2c1)c1ccc([S+]([O-])c2ccccc2Cl)cc1 (stereo not drawn) | 190 nM and 760 nM
57 | C#CCN(Cc1ccc2nc(C)nc(O)c2c1)c1ccc([S+]([O-])c2ccccc2)c(F)c1 (stereo not drawn) | 88 nM and 290 nM
58 | C#CCN(Cc1ccc2nc(C)nc(O)c2c1)c1ccc(S(=O)(=O)c2ccccc2C)cc1 | 56 nM and 160 nM
